≈ marks a conversion by molar mass, not a printed value. Calls of active or inactive are those of the source. The calls are words filed in the database; no cut-off is given here.
Assays:
[1] = system: Vero; test: Cytotoxicity against african green monkey Vero cells; assay type: cell-based; details: Chlorocebus sabaeus
[2] = system: Mycobacterium tuberculosis; test: Antimycobacterial activity against Mycobacterium tuberculosis H37Rv by microplate alamar blue assay; assay type: functional
[3] = system: Mycobacterium tuberculosis; test: Antimycobacterial activity against Mycobacterium tuberculosis H37Rv by low oxygen recovery assay; assay type: functional
[4] = system: Mycolicibacterium smegmatis; test: Antimycobacterial activity against Mycobacterium smegmatis at 55 uM by broth microdilution method; assay type: functional, organism-based
[5] = system: Staphylococcus aureus; test: Antibacterial activity against Staphylococcus aureus at 55 uM by broth microdilution method; assay type: functional, organism-based
[6] = system: Escherichia coli; test: Antibacterial activity against Escherichia coli at 55 uM by broth microdilution method; assay type: functional, organism-based
[7] = system: Candida albicans; test: Antifungal activity against Candida albicans at 55 uM by broth microdilution method; assay type: functional, organism-based

O=c1c2cccc(O)c2c(=O)c2c(O)c3c(cc12)c(=O)c1c(O)cccc13 [EUCAPSITRIONE]
IC50 [1]: > 28 µM | MIC [2]: 3.1 µM (≈ 1.11 µg/mL) | MIC [3]: 6.4 µM (≈ 2.29 µg/mL) | Activity [4]: inactive | Activity [5]: inactive | Activity [6]: inactive | Activity [7]: inactive

Source: ChEMBL document CHEMBL1212941, “Eucapsitrione, an anti-Mycobacterium tuberculosis anthraquinone derivative from the cultured freshwater cyanobacterium Eucapsis sp” (J Nat Prod, 2010)
